Measurements from patent US12215389B2, “Compositions for detecting epigenetic modifications” (EXACT SCIENCES CORPORATION, priority 2007, dated 2025).

Test system: methylated gene promoters in plasma DNA
Experiment: Real-time MSP on plasma DNA
Set-up: species or system human
Settings: for % Specificity (all 59 controls), plasma set 1: plasma training set 1; for % Sensitivity adenomas plasma set 2: increased plasma equivalent of DNA per real-time MSP assay / % Specificity (all 89 controls), plasma set 2: increased plasma equivalent of DNA per real-time MSP assay: plasma training set 2
Description: 10 ml of blood was obtained per individual using EDTA Vacutainer™ tubes. Individuals with no suspicious findings, adenomas or carcinomas based on colonoscopy were enrolled in the present study. Within 4 hrs from the blood drawing, the plasma fraction was separated from the cell fraction by centrifugation at 1500 g for 15 min (4° C.). The plasma was transferred to new tubes and once again centrifuged (1500 g, 15 min, 4° C.), after which the supernatant was transferred to new tubes and stored at −80° C. until further use. Samples were shipped on dry ice.
DNA isolation from plasma samples (1.2 to 6 ml) was performed using an upscaled phenol-chloroform DNA isolation method using the 15 ml of Heavy Phase lock Gel tubes (PLG tubes) (Eppendorf, cat #0032 005.152) or alternatively the ChargeSwitch® gDNA 1 ml serum kit from Invitrogen (cat #CS11040).
Plasma samples were thawed and 1/10 volume of 10× buffer (240 mM EDTA (pH=8.0), 750 mM NaCl), 1/10 volume of 10% SDS and 5 μl of Proteinase K (20 mg/ml stock solution) per 1 ml of sample (e.g. 15 μl for 3 ml of sample) was added to each plasma sample. This mixture was incubated overnight at 48° C. at constant shaking (200 RPM).
Subsequently the PLG tube was centrifuged at 2500 RCF for 3 min, sample mixture and approximately the same volume of phenol/chloroform (Invitrogen, cat #15593049) were added to it. This solution was briefly vortexed, mixed for 10 min using a tube rocker at room temperature and centrifuged for 5 min at 2500 RCF. In case the retrieved sample volume was ≤4 ml, an equal volume of phenol/chloroform was added. The upper aqueous layer was phenol/chloroform-treated for a second time.
DNA was precipated from the upper aqueous layer by adding 5 μl glycogen, 1/10 volume of 7.5 M Ammonium Acetate and 2-2.5 volumes of cold (−20° C.) 100% ethanol. Tubes were gently inverted and incubated at −20° C. for at least 1 h, followed by a centrifugation step at 17000 RCF for 30 min (4° C.). Ethanol was carefully removed by pipetting. Pellets were washed with 2 ml freshly prepared 70% ethanol, vortexed gently and submitted to a centrifugation step at 17000 RCF for 15 min at 4° C. After careful removal of the remaining ethanol, pellets were air dried and resuspended in 45 μl of LoTE pH 8.0. The isolated DNA is stored at −80° C. until further processing.
The complete content of DNA isolated in above procedure was subjected to sodium bisulfite treatment (BT) using the EZ-96 DNA Methylation kit from Zymo Research (Cat #D5003) performed on a pipetting robot (Tecan Freedom EVOII, Roma, Liha, Mca, Te-Vacs). Briefly, 45 μl of plasma DNA sample was mixed with 5 μl of M-Dilution Buffer (provided in kit) and incubated at 37° C. for 15 min shaking at 1100 RPM. This mixture was further incubated with 100 μl of diluted CT conversion reagent (provided in kit) shaking at 70° C. for 3 hours (protected from light). Subsequently the modified DNA was desalted and desulfonated according to manufacturer's instructions and eluted in either 40 μl or 20 μl of Tris-HCl 1 mM pH8.0, depending on the applied concentration procedure. The eluted material was stored at −80° C. until further processing.
2.4 μl of the modified DNA was added to a PCR mix (total volume 12 μl) containing home-made buffer solution (final concentrations are summarized: 16.6 mM (NH4)2SO4, 67 mM Tris (pH 8.8), 6.7 mM MgCl2, 10 mM β-mercaptoethanol), dNTPs (5 mM; Amersham Biosciences cat #27-2035-02), methylation specific forward primer (6 ng), methylation specific reverse primer (18 ng), molecular beacon (0.16 μM) and Jumpstart DNA Taq polymerase (0.4 units; Sigma Cat #D9307).
A standard curve was included (9.6×10^5—9.6 copies) to determine copy numbers of unknown samples by interpolation of their Ct values to the standard curve.
DNA was isolated following the upscaled phenol-chloroform procedure; subsequently the whole DNA sample was modified as described above.

## GATA5 (DNA AGTTCGTTTTTAGGTTAGTTTTCGGC; listed as DNA, chemistry not given here)
  % Specificity (all 59 controls), plasma set 1: 97%
  % Sensitivity adenomas plasma set 2: increased plasma equivalent of DNA per real-time MSP assay: 6%
  % Specificity (all 89 controls), plasma set 2: increased plasma equivalent of DNA per real-time MSP assay: 99%

## SFRP1 (DNA TGTAGTTTTCGGAGTTAGTGTCGCGC; listed as DNA, chemistry not given here)
  % Specificity (all 59 controls), plasma set 1: 98%
  % Sensitivity adenomas plasma set 2: increased plasma equivalent of DNA per real-time MSP assay: 2%
  % Specificity (all 89 controls), plasma set 2: increased plasma equivalent of DNA per real-time MSP assay: 96%
